Structures can show the parent of a compound that is named as a salt.
Tested on: neuro-2a (mouse neuroblastoma cells)
Assay: Action on neuro-2a: proportion of cells containing outgrown neurites
Format: cell-based
Settings: mean ± S.D.
Method: The effects of the compounds of this invention on neuroblastoma cells were examined by the following method.
Mouse neuro 2a cells in the logarithmic growth period in the Dulbecco's modified Eagle's medium DMEM, containing 100 units/ml of penicillin G sodium and 100 micrograms/ml of streptomycin sulfate]containing 10 % of FCS were seeded in a 48-well plate so that the number of cells was 1,000 cells/well, and cultured for one day in 0.25 ml of the culture fluid in each well in an incubator containing 5 % of carbon dioxide gas in air at 37° C. Then, a 4 % aqueous glutaraldehyde solution in the same amount as a medium (0.25 ml) was added, and the culture fluid was left to stand at room temperature for 2 hours to fix the cells. After washing with water, a 0.05 % aqueous solution of methylene blue was added to stain the cells Under a microscope, the number of cells containing outgrown neurites (cells having at least one neurite with a length of at least two times as large as the long diameter of the cell) was counted visually, and the proportion of these cells in the entire cells was calculated. The well was observed over 5 or more visual fields (at least 2 % of the entire surface area of the well) continuous to the left and right from a mark put at the center of the well, and more than 200 cells was counted. One drug compound was used in 6 different concentrations at most, and three runs were conducted for each concentrations.

Structure (SMILES): CN(C(=O)c1ccccc1)c1ccnc(N2CCC(O)CC2)n1 [Compound 2060]
- Number of cells having neurites with a length at least two times the diameter of each cell/total number of cells (0.03 mM): 3.6 ± 0.1%
- Number of cells having neurites with a length at least two times the diameter of each cell/total number of cells (1 mM): 7.6 ± 0.7%

Structure (SMILES): CN(C(=O)c1ccccc1)c1ccnc(N2CCC(N(C)C)CC2)n1 [Compound 2148]
- Number of cells having neurites with a length at least two times the diameter of each cell/total number of cells (0.03 mM): 4.5 ± 1.3%
- Number of cells having neurites with a length at least two times the diameter of each cell/total number of cells (0.1 mM): 4.2 ± 1.2%

Structure (SMILES): CN(C(=O)c1ccccc1)c1ccnc(N2CCC(c3ccccc3)CC2)n1 [Compound 167]
- Number of cells having neurites with a length at least two times the diameter of each cell/total number of cells (0.1 mM): 22.5 ± 3.4%
- Number of cells having neurites with a length at least two times the diameter of each cell/total number of cells (0.3 mM): 9.3 ± 2.3%

Structure (SMILES): CN(C)C(=O)N(C)c1ccnc(N2CCC(c3ccccc3)CC2)n1 [Compound 2294]
- Number of cells having neurites with a length at least two times the diameter of each cell/total number of cells (0.03 mM): 3.7 ± 0.9%
- Number of cells having neurites with a length at least two times the diameter of each cell/total number of cells (0.1 mM): 8.1 ± 1.6%

Structure (SMILES): CN(C(=O)c1ccccc1)c1ccnc(N2CCC(OC(=O)c3ccccc3)CC2)n1 [Compound 2226]
- Number of cells having neurites with a length at least two times the diameter of each cell/total number of cells (0.03 mM): 6.4 ± 3.3%
- Number of cells having neurites with a length at least two times the diameter of each cell/total number of cells (0.1 mM): 15.4 ± 3.9%

Structure (SMILES): CN(C(=O)COc1ccccc1)c1ccnc(N2CCC(c3ccccc3)CC2)n1 [Compound 2286]
- Number of cells having neurites with a length at least two times the diameter of each cell/total number of cells (0.03 mM): 9.7 ± 5.4%
- Number of cells having neurites with a length at least two times the diameter of each cell/total number of cells (0.1 mM): 8.4 ± 0.8%

Structure (SMILES): CN(C(=O)c1ccc([N+](=O)[O-])cc1)c1nccc(N2CCC(c3ccccc3)CC2)n1 [Compound 676]
- Number of cells having neurites with a length at least two times the diameter of each cell/total number of cells (0.3 mM): 6.0 ± 1.1%
- Number of cells having neurites with a length at least two times the diameter of each cell/total number of cells (1 mM): 4.2 ± 2.1%

Structure (SMILES): CN(C(=O)c1ccccc1)c1nccc(N2CCC(C(C)(C)C)CC2)n1 [Compound 620]
- Number of cells having neurites with a length at least two times the diameter of each cell/total number of cells (0.01 mM): 4.7 ± 0.4%
- Number of cells having neurites with a length at least two times the diameter of each cell/total number of cells (0.03 mM): 4.0 ± 1.3%

Structure (SMILES): CCOC(=O)C1CCN(c2nccc(N(C)C(=O)c3ccccc3)n2)CC1 [Compound 2100]
- Number of cells having neurites with a length at least two times the diameter of each cell/total number of cells (0.03 mM): 4.4 ± 0.8%
- Number of cells having neurites with a length at least two times the diameter of each cell/total number of cells (0.1 mM): 4.7 ± 1.4%

Structure (SMILES): CN1C(=O)Cc2cnc(N3CCN(S(C)(=O)=O)CC3)nc21 [Compound 3404]
- Number of cells having neurites with a length at least two times the diameter of each cell/total number of cells (0.03 mM): 3.3 ± 1.3%
- Number of cells having neurites with a length at least two times the diameter of each cell/total number of cells (0.3 mM): 3.4 ± 1.4%

Structure (SMILES): CNc1nc(N2CCCc3ccccc32)ncc1C [Compound 1102]
- Number of cells having neurites with a length at least two times the diameter of each cell/total number of cells (0.1 mM): 11.9 ± 0.7%
- Number of cells having neurites with a length at least two times the diameter of each cell/total number of cells (0.3 mM): 10.1 ± 3.0%

Structure (SMILES): CNc1ccnc(N2CCCc3ccccc32)n1 [Compound 1034]
- Number of cells having neurites with a length at least two times the diameter of each cell/total number of cells (0.03 mM): 3.9 ± 2.8%
- Number of cells having neurites with a length at least two times the diameter of each cell/total number of cells (0.1 mM): 7.6 ± 2.1%
- Number of cells having neurites with a length at least two times the diameter of each cell/total number of cells (0.3 mM): 11.3 ± 1.6%

Structure (SMILES): CN(C(=O)c1ccc(NC(=O)c2ccccc2)cc1)c1ccnc(N2CCC(c3ccccc3)CC2)n1 [Compound 2194]
- Number of cells having neurites with a length at least two times the diameter of each cell/total number of cells (0.1 mM): 9.5 ± 3.5%
- Number of cells having neurites with a length at least two times the diameter of each cell/total number of cells (0.3 mM): 7.6 ± 2.8%

Structure (SMILES): Cc1ccc(S(=O)(=O)N(C)c2ccnc(N3CCC(c4ccccc4)CC3)n2)cc1 [Compound 2012]
- Number of cells having neurites with a length at least two times the diameter of each cell/total number of cells (0.03 mM): 6.6 ± 1.2%
- Number of cells having neurites with a length at least two times the diameter of each cell/total number of cells (0.3 mM): 6.6 ± 3.1%

Structure (SMILES): CNc1nc(N2CCC(c3ccccc3)CC2)ncc1C [Compound 1098]
- Number of cells having neurites with a length at least two times the diameter of each cell/total number of cells (0.01 mM): 5.3 ± 1.4%
- Number of cells having neurites with a length at least two times the diameter of each cell/total number of cells (0.03 mM): 10.2 ± 0.9%
- Number of cells having neurites with a length at least two times the diameter of each cell/total number of cells (0.1 mM): 5.7 ± 2.0%

Structure (SMILES): COC(=O)c1cnc(NC(C)C)nc1C [Compound 800, 2-isopropylamino-4-methyl-5-methoxycarbonylpyrimidine]
- Number of cells having neurites with a length at least two times the diameter of each cell/total number of cells (0.3 mM): 11.4 ± 1.2%
- Number of cells having neurites with a length at least two times the diameter of each cell/total number of cells (1 mM): 25.7 ± 1.9%
- Number of cells having neurites with a length at least two times the diameter of each cell/total number of cells (3 mM): 22.3 ± 0.7%
- Number of cells having neurites with a length at least two times the diameter of each cell/total number of cells (10 mM): 16.9 ± 0.8%

Structure (SMILES): CN(C(=O)c1ccccc1)c1ccnc(N2CCC(NC(=O)c3ccccc3)CC2)n1 [Compound 2174]
- Number of cells having neurites with a length at least two times the diameter of each cell/total number of cells (0.01 mM): 2.5 ± 1.0%

Structure (SMILES): CN1C(=O)Cc2cnc(N3CCN(C(c4ccccc4)c4ccc(F)cc4)CC3)nc21 (centres unmarked) [Compound 3136]
- Number of cells having neurites with a length at least two times the diameter of each cell/total number of cells (0.01 mM): 5.8 ± 0.6%
- Number of cells having neurites with a length at least two times the diameter of each cell/total number of cells (0.03 mM): 13.8 ± 4.8%
- Number of cells having neurites with a length at least two times the diameter of each cell/total number of cells (0.1 mM): 20.9 ± 5.3%
- Number of cells having neurites with a length at least two times the diameter of each cell/total number of cells (0.3 mM): 7.1 ± 3.0%

Structure (SMILES): CN(C(=O)c1ccccc1)c1ccnc(NC2CCNCC2)n1 [Compound 2188]
- Number of cells having neurites with a length at least two times the diameter of each cell/total number of cells (0.1 mM): 2.4 ± 0.9%
- Number of cells having neurites with a length at least two times the diameter of each cell/total number of cells (0.3 mM): 3.8 ± 1.1%

Structure (SMILES): CN(C(=O)c1ccccc1)c1nccc(N2CCC(Cc3ccccc3)CC2)n1 [Compound 692]
- Number of cells having neurites with a length at least two times the diameter of each cell/total number of cells (0.03 mM): 5.8 ± 0.9%
- Number of cells having neurites with a length at least two times the diameter of each cell/total number of cells (0.1 mM): 11.1 ± 2.9%

Structure (SMILES): CCCCNC1CCN(c2nccc(N(C)C(=O)c3ccccc3)n2)CC1 [Compound 2260]
- Number of cells having neurites with a length at least two times the diameter of each cell/total number of cells (0.03 mM): 2.2 ± 0.3%
- Number of cells having neurites with a length at least two times the diameter of each cell/total number of cells (0.1 mM): 2.3 ± 0.5%

Structure (SMILES): Cc1ccc(C(=O)N(C)c2ccnc(N3CCC(c4ccccc4)CC3)n2)cc1 [Compound 171-3]
- Number of cells having neurites with a length at least two times the diameter of each cell/total number of cells (0.1 mM): 28.8 ± 3.1%
- Number of cells having neurites with a length at least two times the diameter of each cell/total number of cells (0.3 mM): 19.5 ± 7.0%

Structure (SMILES): CN(C(=O)c1ccccc1)c1ccnc(N(Cc2ccccc2)Cc2ccccc2)n1 [Compound 2108]
- Number of cells having neurites with a length at least two times the diameter of each cell/total number of cells (0.03 mM): 4.8 ± 2.0%
- Number of cells having neurites with a length at least two times the diameter of each cell/total number of cells (1 mM): 13.5 ± 0.1%

Structure (SMILES): CN(C(=O)c1ccccc1)c1ccnc(N2CCC(C(=O)c3ccccc3)CC2)n1 [Compound 306]
- Number of cells having neurites with a length at least two times the diameter of each cell/total number of cells (0.03 mM): 7.7 ± 0.5%
- Number of cells having neurites with a length at least two times the diameter of each cell/total number of cells (0.1 mM): 2.8 ± 0.8%

Structure (SMILES): CN1C(=O)Cc2cnc(N3CCN(C(c4ccccc4)c4ccccc4)CC3)nc21 [Compound 3128, 2-(4-diphenylmethylpiperazino)-5,6-dihydro-7-methyl-6-oxo(7H)pyrrolo2,3-d]pyrimidine hydrochloride]
- Number of cells having neurites with a length at least two times the diameter of each cell/total number of cells (0.1 mM): 14.2 ± 1.9%
- Number of cells having neurites with a length at least two times the diameter of each cell/total number of cells (0.3 mM): 11.9 ± 4.5%

Structure (SMILES): CN(C(=O)c1ccccc1)c1ccnc(N2CCC(c3ccc([N+](=O)[O-])cc3)CC2)n1 [Compound 2076]
- Number of cells having neurites with a length at least two times the diameter of each cell/total number of cells (0.01 mM): 4.8 ± 1.4%
- Number of cells having neurites with a length at least two times the diameter of each cell/total number of cells (0.03 mM): 1.9 ± 1.3%

Structure (SMILES): CCN(C(=O)c1ccccc1)c1nccc(N2CCC(c3ccccc3)CC2)n1 [Compound 636]
- Number of cells having neurites with a length at least two times the diameter of each cell/total number of cells (0.03 mM): 12.1 ± 3.4%
- Number of cells having neurites with a length at least two times the diameter of each cell/total number of cells (0.1 mM): 8.9 ± 5.2%

Structure (SMILES): CNc1nc(C)cc(N2CCCCC2)n1 [Compound 1110]
- Number of cells having neurites with a length at least two times the diameter of each cell/total number of cells (0.01 mM): 3.4 ± 1.1%
- Number of cells having neurites with a length at least two times the diameter of each cell/total number of cells (0.03 mM): 4.4 ± 0.3%
- Number of cells having neurites with a length at least two times the diameter of each cell/total number of cells (0.1 mM): 6.3 ± 4.4%
- Number of cells having neurites with a length at least two times the diameter of each cell/total number of cells (0.3 mM): 16.5 ± 2.1%

Structure (SMILES): CNc1nccc(N2CCc3ccccc3C2)n1 [Compound 1130]
- Number of cells having neurites with a length at least two times the diameter of each cell/total number of cells (0.03 mM): 1.8 ± 0.5%
- Number of cells having neurites with a length at least two times the diameter of each cell/total number of cells (0.1 mM): 2.0 ± 0.3%

Structure (SMILES): CN(C(=O)c1ccccc1)c1ccnc(N2CCC(c3ccccc3)CC2)n1 [Compound 166]
- Number of cells having neurites with a length at least two times the diameter of each cell/total number of cells (0.1 mM): 36.8 ± 7.1%
- Number of cells having neurites with a length at least two times the diameter of each cell/total number of cells (0.3 mM): 13.4 ± 4.0%

Structure (SMILES): CC1CCN(c2nccc(N(C(=O)c3ccccc3)c3ccccc3)n2)CC1.Cc1ccc(S(=O)(=O)O)cc1 [Compound 150]
- Number of cells having neurites with a length at least two times the diameter of each cell/total number of cells (0.03 mM): 9.3 ± 1.9%
- Number of cells having neurites with a length at least two times the diameter of each cell/total number of cells (0.1 mM): 13.6 ± 1.2%
- Number of cells having neurites with a length at least two times the diameter of each cell/total number of cells (0.3 mM): 6.6 ± 3.0%

Structure (SMILES): CN(C(=O)c1ccccc1)c1ccnc(N2CCC(c3ccccc3)CC2)n1 [Compound 171]
- Number of cells having neurites with a length at least two times the diameter of each cell/total number of cells (0.1 mM): 37.1 ± 1.9%
- Number of cells having neurites with a length at least two times the diameter of each cell/total number of cells (0.3 mM): 8.8 ± 2.6%

Structure (SMILES): CN1C(=O)Cc2cnc(N3CCN(C(c4ccccc4)(c4ccccc4)c4ccccc4)CC3)nc21 [Compound 3300]
- Number of cells having neurites with a length at least two times the diameter of each cell/total number of cells (0.3 mM): 6.1 ± 1.2%
- Number of cells having neurites with a length at least two times the diameter of each cell/total number of cells (1 mM): 7.8 ± 1.0%

Source: patent US5147876A, “2,6-di,2,4,6-, 2,5,6-tri and 2,4,5,6-tetra-substituted pyrimidines, their pharmaceutically acceptable salts, pharmaceutical compositions containing same and their use in the treatment of neurological diseases” (Mitsui Petrochemical Industries, Ltd., priority 1988, dated 1992)
